Experimental data: the NIST ThermoML archive (doi:10.1021/je050294+)
Numbers after ± are expanded uncertainties.

Experiments:
[1] = xn = mol fraction of the nth substance listed; settings: Liquid; for speed of sound: Linear variable-path acoustic interferometer; for mass density: Vibrating tube method
[2] = excess molar enthalpy (molar enthalpy of mixing); xn = mol fraction of the nth substance listed; settings: 101 kPa, Liquid, Flow calorimetry

C=C1CCC2CC1C2(C)C (stereo not drawn) [β-pinene] + CCC(C)O
[1], 101.3 kPa
Settings	mass density [kg/m3]	speed of sound [m/s]
283.15 K, x1 = 0.0526	820.26 ± 0.43	1271.9 ± 1.7
283.15 K, x1 = 0.1031	824.88 ± 0.43	1276.6 ± 1.7
283.15 K, x1 = 0.2058	833.37 ± 0.43	1285.1 ± 1.8
283.15 K, x1 = 0.3006	840.38 ± 0.43	1292.5 ± 1.8
283.15 K, x1 = 0.4019	847.14 ± 0.44	1299.8 ± 1.8
283.15 K, x1 = 0.5035	853.29 ± 0.44	1307.2 ± 1.8
283.15 K, x1 = 0.6023	858.87 ± 0.44	1314.9 ± 1.8
283.15 K, x1 = 0.7047	864.32 ± 0.44	1323.5 ± 1.8
283.15 K, x1 = 0.7995	869.14 ± 0.45	1332.4 ± 1.8
283.15 K, x1 = 0.8988	873.93 ± 0.45	1342.4 ± 1.8
283.15 K, x1 = 0.9401	875.92 ± 0.45	1347 ± 1.8
298.15 K, x1 = 0.0522	807.98 ± 0.42	1216.6 ± 1.7
298.15 K, x1 = 0.105	812.54 ± 0.42	1220.2 ± 1.7
298.15 K, x1 = 0.206	820.79 ± 0.43	1227.3 ± 1.7
298.15 K, x1 = 0.3006	827.65 ± 0.43	1233.5 ± 1.7
298.15 K, x1 = 0.3995	834.25 ± 0.43	1240 ± 1.7
298.15 K, x1 = 0.5017	840.58 ± 0.43	1247.2 ± 1.7
298.15 K, x1 = 0.6096	846.71 ± 0.44	1255.5 ± 1.7
298.15 K, x1 = 0.7011	851.61 ± 0.44	1263 ± 1.7
298.15 K, x1 = 0.8035	856.93 ± 0.44	1272.5 ± 1.7
298.15 K, x1 = 0.9067	862.02 ± 0.44	1282.6 ± 1.8
298.15 K, x1 = 0.9449	863.9 ± 0.44	1287 ± 1.8
313.15 K, x1 = 0.0526	794.95 ± 0.42	1161.7 ± 1.7
313.15 K, x1 = 0.0997	799.22 ± 0.42	1164.1 ± 1.7
313.15 K, x1 = 0.2028	807.25 ± 0.42	1170.4 ± 1.7
313.15 K, x1 = 0.2999	814.22 ± 0.42	1175.7 ± 1.7
313.15 K, x1 = 0.4043	821.27 ± 0.43	1182.5 ± 1.7
313.15 K, x1 = 0.5088	827.69 ± 0.43	1189.9 ± 1.7
313.15 K, x1 = 0.6027	833.19 ± 0.43	1197 ± 1.7
313.15 K, x1 = 0.6993	838.59 ± 0.43	1205 ± 1.7
313.15 K, x1 = 0.8035	844.16 ± 0.44	1214.6 ± 1.7
313.15 K, x1 = 0.896	848.93 ± 0.44	1223.2 ± 1.7
313.15 K, x1 = 0.9453	851.52 ± 0.44	1228.7 ± 1.7

excess molar enthalpy [kcal/mol], [2]
Settings	283.15 K	298.15 K	313.15 K
x1 = 0.066	0.0306 ± 0.00143	0.0413 ± 0.00191	0.0397 ± 0.00191
x1 = 0.134	0.0629 ± 0.00167	0.087 ± 0.00167	0.0968 ± 0.00191
x1 = 0.259	0.111 ± 0.00191	0.152 ± 0.00191	0.179 ± 0.00215
x1 = 0.38	0.143 ± 0.00215	0.196 ± 0.00239	0.234 ± 0.00239
x1 = 0.489	0.164 ± 0.00239	0.223 ± 0.00239	0.2682 ± 0.00263
x1 = 0.581	0.172 ± 0.00239	0.232 ± 0.00263	0.2806 ± 0.00263
x1 = 0.677	0.169 ± 0.00239	0.227 ± 0.00239	0.2768 ± 0.00263
x1 = 0.765	0.155 ± 0.00215	0.208 ± 0.00239	0.257 ± 0.00263
x1 = 0.845	0.131 ± 0.00215	0.177 ± 0.00239	0.223 ± 0.00263
x1 = 0.927	0.0925 ± 0.00191	0.127 ± 0.00215	0.161 ± 0.00263
x1 = 0.963	0.0669 ± 0.00191	0.0903 ± 0.00239	0.112 ± 0.00311

C=C1CCC2CC1C2(C)C (stereo not drawn) [β-pinene] + CCCCO
[1], 101 kPa
Settings	mass density [kg/m3]	speed of sound [m/s]
283.15 K, x1 = 0.0494	822.4 ± 0.14	1295.8 ± 1.5
283.15 K, x1 = 0.1023	827.32 ± 0.15	1299.6 ± 1.5
283.15 K, x1 = 0.204	835.8 ± 0.18	1305.9 ± 1.5
283.15 K, x1 = 0.3052	843.23 ± 0.21	1311.7 ± 1.5
283.15 K, x1 = 0.4007	849.5 ± 0.24	1316.8 ± 1.5
283.15 K, x1 = 0.5005	855.39 ± 0.27	1321.9 ± 1.6
283.15 K, x1 = 0.5929	–	1323.6 ± 1.6
283.15 K, x1 = 0.695	865.44 ± 0.34	1332 ± 1.7
283.15 K, x1 = 0.7975	870.17 ± 0.38	1338.1 ± 1.7
283.15 K, x1 = 0.9009	874.7 ± 0.41	1345.2 ± 1.7
283.15 K, x1 = 0.9179	875.44 ± 0.42	1347.3 ± 1.8
298.15 K, x1 = 0.054	811.4 ± 0.15	1243.7 ± 1.4
298.15 K, x1 = 0.1027	815.79 ± 0.16	1246.2 ± 1.4
298.15 K, x1 = 0.1893	822.86 ± 0.18	1250.3 ± 1.4
298.15 K, x1 = 0.2992	830.92 ± 0.21	1255.2 ± 1.5
298.15 K, x1 = 0.4011	837.49 ± 0.24	1259.4 ± 1.5
298.15 K, x1 = 0.4987	843.18 ± 0.27	1263.5 ± 1.5
298.15 K, x1 = 0.6041	848.79 ± 0.31	1268.1 ± 1.6
298.15 K, x1 = 0.6946	853.25 ± 0.34	1272.3 ± 1.6
298.15 K, x1 = 0.7745	856.95 ± 0.36	1276.6 ± 1.6
298.15 K, x1 = 0.9003	862.46 ± 0.41	1284.6 ± 1.7
298.15 K, x1 = 0.9349	863.93 ± 0.42	1287.4 ± 1.7
313.15 K, x1 = 0.0493	799.21 ± 0.15	1193.1 ± 1.4
313.15 K, x1 = 0.1011	803.76 ± 0.16	1194.6 ± 1.4
313.15 K, x1 = 0.1988	811.57 ± 0.18	1197.8 ± 1.4
313.15 K, x1 = 0.3012	818.82 ± 0.21	1201 ± 1.4
313.15 K, x1 = 0.3998	825.01 ± 0.24	1203.9 ± 1.5
313.15 K, x1 = 0.5009	830.84 ± 0.27	1207.3 ± 1.5
313.15 K, x1 = 0.6003	836.12 ± 0.3	1211.4 ± 1.5
313.15 K, x1 = 0.7062	841.36 ± 0.34	1216.2 ± 1.6
313.15 K, x1 = 0.8017	845.7 ± 0.37	1221.1 ± 1.6
313.15 K, x1 = 0.8988	850.1 ± 0.4	1227.1 ± 1.7
313.15 K, x1 = 0.954	852.44 ± 0.42	1231.4 ± 1.7

excess molar enthalpy [kcal/mol], [2]
Settings	283.15 K	298.15 K	313.15 K
x1 = 0.066	0.0117 ± 0.0012	0.0165 ± 0.0012	0.0213 ± 0.0012
x1 = 0.134	0.0253 ± 0.0012	0.0366 ± 0.0012	0.0468 ± 0.00143
x1 = 0.259	0.0514 ± 0.00143	0.0741 ± 0.00143	0.102 ± 0.00167
x1 = 0.371	0.0724 ± 0.00143	0.102 ± 0.00167	0.137 ± 0.00191
x1 = 0.489	0.0901 ± 0.00167	0.125 ± 0.00191	0.17 ± 0.00215
x1 = 0.591	0.101 ± 0.00167	0.138 ± 0.00191	0.186 ± 0.00215
x1 = 0.677	0.105 ± 0.00167	0.141 ± 0.00191	0.19 ± 0.00215
x1 = 0.765	0.0985 ± 0.00167	0.133 ± 0.00191	0.179 ± 0.00215
x1 = 0.856	0.0846 ± 0.00143	0.114 ± 0.00167	0.153 ± 0.00191
x1 = 0.927	0.0674 ± 0.00143	0.0889 ± 0.00167	0.116 ± 0.00191
x1 = 0.975	0.0435 ± 0.00167	0.0667 ± 0.00167	0.0786 ± 0.00191
